Reference: US12492174B2, “Morpholine-3-carboxamide derivatives as prostaglandin E2 receptor 4 (EP4) agonists for the treatment of gastrointestinal and pulmonary diseases” (NXERA PHARMA UK LIMITED, priority 2022, dated 2025)

Legend:
[1] = Unidirectional Caco-2 cell permeability assay; type: in vitro ADME; details: human, n=2, apical pH 6.5, basolateral pH 7.4, 1 hour, 37° C.
Procedure: Caco-2 cells (ECACC) were seeded onto 24-well Transwell plates at 2×10^5 cells per well and used in confluent monolayers after a 21 day culture at 37° C. under 5% CO2. Test compounds were incubated at 10 μM, 0.2% DMSO final, n=2 in assay buffer (Hanks balanced salt solution supplemented with 25 mM HEPES, adjusted to pH 6.5). Hanks balanced salt solution supplemented with 25 mM HEPES, adjusted to pH 7.4 (0.2% DMSO final) was used for the basolateral chamber (as receiver).
Incubations were performed at 37° C., with samples removed from both donor and acceptor chambers at T=0 and 1 hour and compound analysed by mass spectrometry (LC-MS/MS) including an analytical internal standard (0.5 μM carbamazepine).
Apparent permeability (Papp) values are shown in Table 4 and were determined from the relationship:
Where V is the volume of each Transwell compartment (apical 125 μL, basolateral 600 μL), and concentrations are the relative MS responses for compound (normalized to internal standard) in the donor chamber before incubation and acceptor chamber at the end of the incubation Area=area of cells exposed for drug transfer (0.33 cm^2).
Lucifer Yellow (LY) was added to the apical buffer in all wells to assess viability of the cell layer. As LY cannot freely permeate lipophilic barriers, a high degree of LY transport indicates poor integrity of the cell layer and wells with a LY Papp>10×10^−6 cm/s were rejected.
Compound recovery from the wells was determined from MS responses (normalized to internal standard) in donor and acceptor chambers at the end of incubation compared to response in the donor chamber pre-incubation.

human EP4 = biological target: T1, human EP4 (Homo sapiens, UniProt P35408); experiment: cAMP Gs functional assay (HTRF cAMP dynamic-2); type: cell-based; details: for Emax: HEK293, HEK293 cells transfected with EP4 Bacmam virus, positive control 10 uM PGE2; for EC50: HEK293 cells transfected with EP4 Bacmam virus, 30 mins at 37° C., −Log of the molarity (M), read-out: cAMP human EP4 pEC50 (converted)
T1 construct: expressed in transfected cells; host or cells: HEK293 cells transduced with EP4 BacMam virus
T1 sequence (P35408 whole entry): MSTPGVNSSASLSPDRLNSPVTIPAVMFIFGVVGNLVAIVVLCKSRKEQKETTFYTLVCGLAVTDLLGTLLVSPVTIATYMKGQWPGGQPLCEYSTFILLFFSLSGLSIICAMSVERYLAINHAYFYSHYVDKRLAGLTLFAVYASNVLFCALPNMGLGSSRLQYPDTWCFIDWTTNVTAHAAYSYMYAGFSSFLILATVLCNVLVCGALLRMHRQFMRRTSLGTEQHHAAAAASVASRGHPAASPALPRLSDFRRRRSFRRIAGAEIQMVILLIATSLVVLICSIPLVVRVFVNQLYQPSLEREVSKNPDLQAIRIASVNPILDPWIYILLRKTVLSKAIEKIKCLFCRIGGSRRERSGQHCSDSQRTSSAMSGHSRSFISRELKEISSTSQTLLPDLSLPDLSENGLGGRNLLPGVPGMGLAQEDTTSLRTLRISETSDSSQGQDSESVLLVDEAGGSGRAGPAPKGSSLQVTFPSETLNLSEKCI
Procedure: Cloning, Baculovirus generation, large scale infection of HEK293 cells and membrane preparation: Human prostaglandin E2 receptor 4 (EP4) was cloned into pBacMam expression vector (GeneScript, UK). Transposition of EP4 DNA was performed using Invitrogen's Bac-to-Bac Baculovirus Expression Systems. P0 baculovirus was generated by transfecting SF9 Cells with bacmid DNA using Cellfectin II transfection reagent (ThermoFisher Scientific, UK). Following P0 generation P1 virus was then generated ready for large scale infection and membrane preparation. HEK293 cells were grown in DMEM (ThermoFisher Scientific, UK), supplemented with 10% heat inactivated fetal bovine serum (FBS). Cells were infected at a seeding density of 3.5 million cells/mL in 500 cm^3 flasks at 5% v/v EP4 Bacman. Expression was carried out over a 36 hr period at 37° C. with 5% CO2. The cells were removed using PBS and a cell scrapper. The cell culture was centrifuged at 2500 RPM for 10 mins at 4° C. The supernatant was then poured off and the pellet stored at −80° C. The pellet was defrosted and re-suspended in 15 mL of homogenising buffer (20 mM HEPES, 10 mM EDTA, pH 7.4). Then homogenised in mechanical homogeniser (VMR) for 10 seconds. The membrane was centrifuged in centrifuge tubes at 40,000 g for 15 mins at 4° C. The supernatant was poured away and re-suspended in 15 mL of homogenising buffer. Homogenised for 20 seconds. The membrane was centrifuged at 40,000 g for 45 mins at 4° C. The membrane was re-suspended in 3 mL of storage buffer (20 mM HEPES, 0.1 mM EDTA, pH 7.4) mixing well. The resulting membranes were then stored at −80° C.
cAMP Gs Functional Assay: cAMP production following EP4 receptor activation was determined using the Homogeneous Time-Resolved Fluorescence (HTRF) cAMP dynamic-2 assay (Cisbio, France). HEK293 cells were transfected using a 0.5% EP4 Bacmam virus for 36 hours, before dissociating the cells, and freezing at −150° C.
On the day of testing, increasing concentration of test compounds, alongside positive controls (10 uM PGE2 (Tocris, Abingdon, UK)) and negative control (DMSO (Sigma-Aldrich, UK) were added to a ProxiPlate-384 Plus, White 384-shallow well Mircoplate, (PerkinElmer, USA) using the ECHO dispense.
Cells were defrosted in a water bath and resuspended in DMEM supplemented with 10% FBS before centrifuging at 1200 RPM for 5 mins to form a pellet. The pellet was resuspended in assay buffer (DMEM+0.5 mM IBMX (Tocris, Abingdon, UK)) to 0.5×10^6 cells/mL. Cell suspension, for a final assay concentration of 5000 cell/well was added using the multidrop to the pre-dispensed assay plate. The plate was then incubated at 37° C. for 30 mins, with 5% CO2. The cAMP production was determined as manufacturer's instructions, before plates were read on a PheraStar fluorescence plate reader (BMG LabTech, Germany).
The pEC50 values (−Log of the molarity (M) in mol/liter) were calculated from the mid-point of the curve using dotmatics as shown in Table 3.

| Compound | Papp A→B at 1 h, 10 μM [1] | Emax (human EP4) | EC50 (human EP4) |
| --- | --- | --- | --- |
| Cc1cc(C(N)=O)ccc1-c1cccc(CN2CCOC[C@@H]2C(=O)NCc2ccc(C(=O)O)c(F)c2)c1 [Example 13, 4-[[[(3R)-4-[[3-(4-carbamoyl-2-methyl-phenyl)phenyl]methyl]morpholine-3-carbonyl]amino]methyl]-2-fluoro-benzoic acid] | 0.32 ×10⁻⁶ cm/s | 96% | 1.26e-08 M |
| Cc1cc(S(N)(=O)=O)ccc1-c1cccc(CN2CCOC[C@@H]2C(=O)N[C@@H](C)c2ccc(C(=O)O)cc2)c1 [Example 5, 4-((S)-1-((R)-4-((2′-methyl-4′-sulfamoyl-[1,1′-biphenyl]-3-yl)methyl)morpholine-3-carboxamido)ethyl)benzoic acid] | 0.59 ×10⁻⁶ cm/s | 100% | 7.94e-10 M |
